Results reported in the supplement of paper PMC10627819.

Assays:
S. aureus Newman [1] = assay: fitness (endpoint OD595 vs no drug) (fraction); higher = more growth
Outline: (§1)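 Fitness was measured as bacterial growth in 384-well plates inoculated at OD595 0.01 (30 µl, or 55 µl for S. pneumoniae). Media were TSB, LB Lennox or CY, at 37 °C. OD595 was read every 30 min for 14 h and background-subtracted against the first reading. Fitness is OD595 at the transition into stationary phase divided by the robust mean of no-drug control wells, capped at 1.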

S. pneumoniae D39V [2] = assay: as above
Outline: as §1

B. subtilis 168 [3] = assay: Bliss interaction score (quartile over a dose matrix) (fitness difference); higher = more antagonism (negative = synergy)
Outline: (§2)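 Growth in each well was taken as OD595 at entry into stationary phase. Dividing by the plate's robust no-drug mean and capping at 1 gave fitness, and single-drug fitness was inferred from the combination data. The Bliss score, observed minus product-expected fitness, is summarised by quartiles over technical, biological and donor/recipient replicates.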

S. aureus DSM 20231 [4] = assay: as above
Outline: as §2

S. aureus Newman [5] = assay: as above
Outline: as §2

S. pneumoniae D39V [6] = assay: as above
Outline: as §2

B. subtilis 168 [7] = assay: fitness (endpoint OD595 vs no drug) (fraction); higher = more growth
Outline: as §1

S. aureus DSM 20231 [8] = assay: as above
Outline: as §1
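Throughout, for Bliss interaction score (quartile over a dose matrix): first quartile when negative (synergy) and third quartile when positive (antagonism).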

CO/N=C(\C(=O)N[C@@H]1C(=O)N2C(C(=O)[O-])=C(C[N+]3(C)CCCC3)CS[C@H]12)c1csc(N)n1 [Cefepime] + CC(C1CCC(C(O1)OC2C(CC(C(C2O)OC3C(C(C(CO3)(C)O)NC)O)N)N)N)NC [Gentamicin]
main component drawn
Conditions	fitness
S. aureus Newman [1], first compound 0.125 µg/mL, partner 0.375 µg/mL	0.954
S. aureus Newman [1], first compound 0.125 µg/mL, partner 0.5 µg/mL	0.871
S. aureus Newman [1], first compound 0.125 µg/mL, partner 0.75 µg/mL	0.94
S. aureus Newman [1], first compound 0.125 µg/mL, partner 1 µg/mL	≥ 1
S. aureus Newman [1], first compound 0.125 µg/mL, partner 1.5 µg/mL	0.916
S. aureus Newman [1], first compound 0.125 µg/mL, partner 2 µg/mL	≥ 1
S. aureus Newman [1], first compound 0.25 µg/mL, partner 0.375 µg/mL	0.857
S. aureus Newman [1], first compound 0.25 µg/mL, partner 0.5 µg/mL	0.816
S. aureus Newman [1], first compound 0.25 µg/mL, partner 0.75 µg/mL	0.837
S. aureus Newman [1], first compound 0.25 µg/mL, partner 1 µg/mL	0.906
S. aureus Newman [1], first compound 0.25 µg/mL, partner 1.5 µg/mL	0.787
S. aureus Newman [1], first compound 0.25 µg/mL, partner 2 µg/mL	0.966
S. aureus Newman [1], first compound 0.5 µg/mL, partner 0.375 µg/mL	0.799
S. aureus Newman [1], first compound 0.5 µg/mL, partner 0.5 µg/mL	0.757
S. aureus Newman [1], first compound 0.5 µg/mL, partner 0.75 µg/mL	0.818
S. aureus Newman [1], first compound 0.5 µg/mL, partner 1 µg/mL	0.804
S. aureus Newman [1], first compound 0.5 µg/mL, partner 1.5 µg/mL	0.744
S. aureus Newman [1], first compound 0.5 µg/mL, partner 2 µg/mL	0.87
S. pneumoniae D39V [2], first compound 0.007 µg/mL, partner 2 µg/mL	0.994
S. pneumoniae D39V [2], first compound 0.007 µg/mL, partner 4 µg/mL	0.996
S. pneumoniae D39V [2], first compound 0.007 µg/mL, partner 8 µg/mL	0.97
S. pneumoniae D39V [2], first compound 0.0078 µg/mL, partner 2 µg/mL	1
S. pneumoniae D39V [2], first compound 0.0078 µg/mL, partner 4 µg/mL	≥ 1
S. pneumoniae D39V [2], first compound 0.0078 µg/mL, partner 8 µg/mL	0.972
S. pneumoniae D39V [2], first compound 0.014 µg/mL, partner 2 µg/mL	≥ 1
S. pneumoniae D39V [2], first compound 0.014 µg/mL, partner 4 µg/mL	0.99
S. pneumoniae D39V [2], first compound 0.014 µg/mL, partner 8 µg/mL	≥ 1
S. pneumoniae D39V [2], first compound 0.0155 µg/mL, partner 2 µg/mL	0.964
S. pneumoniae D39V [2], first compound 0.0155 µg/mL, partner 4 µg/mL	0.974
S. pneumoniae D39V [2], first compound 0.0155 µg/mL, partner 8 µg/mL	0.971
S. pneumoniae D39V [2], first compound 0.028 µg/mL, partner 2 µg/mL	0.926
S. pneumoniae D39V [2], first compound 0.028 µg/mL, partner 4 µg/mL	0.932
S. pneumoniae D39V [2], first compound 0.028 µg/mL, partner 8 µg/mL	0.885
S. pneumoniae D39V [2], first compound 0.031 µg/mL, partner 2 µg/mL	0.493
S. pneumoniae D39V [2], first compound 0.031 µg/mL, partner 8 µg/mL	0.439

main component drawn
Conditions	Bliss interaction score
B. subtilis 168 [3]	-0.134
S. aureus DSM 20231 [4]	0.0966
S. aureus Newman [5]	-0.0492
S. pneumoniae D39V [6]	0.0531

CO/N=C(\C(=O)N[C@@H]1C(=O)N2C(C(=O)[O-])=C(C[N+]3(C)CCCC3)CS[C@H]12)c1csc(N)n1 [Cefepime] + CN(C)c1cc(NC(=O)CNC(C)(C)C)c(O)c2c1C[C@H]1C[C@H]3[C@H](N(C)C)C(O)=C(C(N)=O)C(=O)[C@@]3(O)C(O)=C1C2=O [Tigecycline]
Conditions	fitness
S. aureus Newman [1], first compound 0.125 µg/mL, partner 0.039 µg/mL	0.905
S. aureus Newman [1], first compound 0.125 µg/mL, partner 0.078 µg/mL	0.92
S. aureus Newman [1], first compound 0.125 µg/mL, partner 0.156 µg/mL	0.882
S. aureus Newman [1], first compound 0.25 µg/mL, partner 0.039 µg/mL	0.837
S. aureus Newman [1], first compound 0.25 µg/mL, partner 0.078 µg/mL	0.838
S. aureus Newman [1], first compound 0.25 µg/mL, partner 0.156 µg/mL	0.862
S. aureus Newman [1], first compound 0.5 µg/mL, partner 0.039 µg/mL	0.72
S. aureus Newman [1], first compound 0.5 µg/mL, partner 0.078 µg/mL	0.763
S. aureus Newman [1], first compound 0.5 µg/mL, partner 0.156 µg/mL	0.798
S. pneumoniae D39V [2], first compound 0.007 µg/mL, partner 0.325 µg/mL	0.996
S. pneumoniae D39V [2], first compound 0.007 µg/mL, partner 0.65 µg/mL	0.964
S. pneumoniae D39V [2], first compound 0.007 µg/mL, partner 1.3 µg/mL	0.955
S. pneumoniae D39V [2], first compound 0.0078 µg/mL, partner 0.65 µg/mL	0.963
S. pneumoniae D39V [2], first compound 0.0078 µg/mL, partner 1.3 µg/mL	0.943
S. pneumoniae D39V [2], first compound 0.0078 µg/mL, partner 2.6 µg/mL	0.918
S. pneumoniae D39V [2], first compound 0.014 µg/mL, partner 0.325 µg/mL	≥ 1
S. pneumoniae D39V [2], first compound 0.014 µg/mL, partner 0.65 µg/mL	0.983
S. pneumoniae D39V [2], first compound 0.014 µg/mL, partner 1.3 µg/mL	0.99
S. pneumoniae D39V [2], first compound 0.0155 µg/mL, partner 0.65 µg/mL	0.91
S. pneumoniae D39V [2], first compound 0.0155 µg/mL, partner 1.3 µg/mL	0.935
S. pneumoniae D39V [2], first compound 0.0155 µg/mL, partner 2.6 µg/mL	0.883
S. pneumoniae D39V [2], first compound 0.028 µg/mL, partner 0.325 µg/mL	0.951
S. pneumoniae D39V [2], first compound 0.028 µg/mL, partner 0.65 µg/mL	0.877
S. pneumoniae D39V [2], first compound 0.028 µg/mL, partner 1.3 µg/mL	0.865
S. pneumoniae D39V [2], first compound 0.031 µg/mL, partner 0.65 µg/mL	0.543
S. pneumoniae D39V [2], first compound 0.031 µg/mL, partner 1.3 µg/mL	0.698
S. pneumoniae D39V [2], first compound 0.031 µg/mL, partner 2.6 µg/mL	0.684

Conditions	Bliss interaction score
B. subtilis 168 [3]	0.115
S. aureus DSM 20231 [4]	0.0417
S. aureus Newman [5]	-0.0743
S. pneumoniae D39V [6]	0.0368

CO/N=C(\C(=O)N[C@@H]1C(=O)N2C(C(=O)[O-])=C(C[N+]3(C)CCCC3)CS[C@H]12)c1csc(N)n1 [Cefepime] + CN[C@@H]1[C@H](O[C@H]2[C@H](O[C@H]3[C@H](O)[C@@H](O)[C@H](N=C(N)N)[C@@H](O)[C@@H]3N=C(N)N)O[C@@H](C)[C@]2(O)C=O)O[C@@H](CO)[C@H](O)[C@H]1O [Streptomycin]
fitness
Conditions	partner 1 µg/mL	partner 2 µg/mL	partner 4 µg/mL	partner 8 µg/mL
S. aureus Newman [1], first compound 0.125 µg/mL	0.939	0.882	–	–
S. aureus Newman [1], first compound 0.25 µg/mL	0.865	0.848	–	–
S. aureus Newman [1], first compound 0.5 µg/mL	0.765	0.773	–	–
S. pneumoniae D39V [2], first compound 0.007 µg/mL	–	0.949	0.945	0.965
S. pneumoniae D39V [2], first compound 0.0078 µg/mL	–	–	≥ 1	0.903
S. pneumoniae D39V [2], first compound 0.014 µg/mL	–	0.971	0.954	0.984
S. pneumoniae D39V [2], first compound 0.0155 µg/mL	–	–	0.984	0.889
S. pneumoniae D39V [2], first compound 0.028 µg/mL	–	0.864	0.874	0.912
S. pneumoniae D39V [2], first compound 0.031 µg/mL	–	–	0.475	0.538

fitness, S. pneumoniae D39V [2], one replicate
Conditions	first compound 0.0078 µg/mL	first compound 0.0155 µg/mL	first compound 0.031 µg/mL
partner 2 µg/mL	≥ 1	0.977	0.468
partner 16 µg/mL	0.883	0.863	0.481

Conditions	Bliss interaction score
B. subtilis 168 [3]	-0.159
S. aureus DSM 20231 [4]	0.0906
S. aureus Newman [5]	0.0474
S. pneumoniae D39V [6]	0.0613

CCCCCCCCCC(=O)N[C@@H](Cc1c[nH]c2ccccc12)C(=O)N[C@H](CC(N)=O)C(=O)N[C@@H](CC(=O)O)C(=O)N[C@@H]1C(=O)NCC(=O)N[C@@H](CCCN)C(=O)N[C@@H](CC(=O)O)C(=O)N[C@H](C)C(=O)N[C@@H](CC(=O)O)C(=O)NCC(=O)N[C@H](CO)C(=O)N[C@@H]([C@H](C)CC(=O)O)C(=O)N[C@@H](CC(=O)c2ccccc2N)C(=O)O[C@@H]1C [Daptomycin] + CC(=O)NC[C@H]1CN(c2ccc(N3CCOCC3)c(F)c2)C(=O)O1 [Linezolid]
one replicate
Conditions	fitness
B. subtilis 168 [7], first compound 0.125 µg/mL, partner 0.0625 µg/mL	0.944
B. subtilis 168 [7], first compound 0.25 µg/mL, partner 0.0625 µg/mL	0.932
B. subtilis 168 [7], first compound 0.5 µg/mL, partner 0.0625 µg/mL	0.802
B. subtilis 168 [7], first compound 1 µg/mL, partner 0.125 µg/mL	0.6
B. subtilis 168 [7], first compound 1 µg/mL, partner 0.25 µg/mL	0.279
B. subtilis 168 [7], first compound 1 µg/mL, partner 0.5 µg/mL	0.0175
S. aureus DSM 20231 [8], first compound 0.125 µg/mL, partner 0.125 µg/mL	0.729
S. aureus DSM 20231 [8], first compound 0.125 µg/mL, partner 1 µg/mL	0.0431
S. aureus DSM 20231 [8], first compound 0.25 µg/mL, partner 0.125 µg/mL	0.869
S. aureus DSM 20231 [8], first compound 0.25 µg/mL, partner 1 µg/mL	0.0221
S. aureus DSM 20231 [8], first compound 0.5 µg/mL, partner 1 µg/mL	0.0214

fitness
Conditions	first compound 0.125 µg/mL	first compound 0.25 µg/mL	first compound 0.5 µg/mL	first compound 1 µg/mL	first compound 2 µg/mL	first compound 4 µg/mL
B. subtilis 168 [7], partner 0.125 µg/mL	0.604	0.605	0.508	–	–	–
B. subtilis 168 [7], partner 0.25 µg/mL	0.0809	–	–	–	–	–
B. subtilis 168 [7], partner 0.5 µg/mL	0.0486	0.0567	0.0348	–	–	–
S. aureus DSM 20231 [8], partner 0.125 µg/mL	–	–	0.844	0.928	0.951	–
S. aureus DSM 20231 [8], partner 0.25 µg/mL	0.629	0.595	0.651	0.823	0.775	–
S. aureus DSM 20231 [8], partner 0.5 µg/mL	0.19	0.177	0.257	0.319	0.335	–
S. pneumoniae D39V [2], partner 0.105 µg/mL	–	–	–	0.741	0.786	0.77
S. pneumoniae D39V [2], partner 0.2 µg/mL	–	–	–	0.409	0.413	0.412
S. pneumoniae D39V [2], partner 0.21 µg/mL	–	–	–	0.651	0.689	0.689
S. pneumoniae D39V [2], partner 0.4 µg/mL	–	–	–	0.207	0.22	0.205
S. pneumoniae D39V [2], partner 0.42 µg/mL	–	–	–	0.476	0.447	0.554
S. pneumoniae D39V [2], partner 0.8 µg/mL	–	–	–	0.0731	0.0931	0.0732

Conditions	Bliss interaction score
B. subtilis 168 [3]	0.0563
S. aureus DSM 20231 [4]	0.0745
S. aureus Newman [5]	0.0604
S. pneumoniae D39V [6]	-0.141
